# “And” between values parts separate entries of the source, which are not always exact repeats. Equal values may be shown once. “Also recorded” adds a separate entry of the source.
# Columns and labels:
# E. coli DH5α = assay: Agar diffusion assay; format: cell-based; settings: for neutralization of antibacterial activity by AlbAS: 40 µM compound pre-incubated with 40 µM AlbAS; for antibacterial activity in agar diffusion assay: 40 µM compound, E. coli DH5α, 18 h 37 °C
# Protocol: To verify the neutralizing ability of AlbAS, AlbAL, AlbASM, AlbASCTD, or AlbASNTD against different compounds, agar diffusion assays with the respective compounds were performed. An overnight culture of E. coli DH5α was diluted to an OD600 of 0.05 with 0.75% LB-agar. The protein-albicidin reaction mixture consisted of a 1:1 mixture of 40 μM albicidin (or derivatives) with 40 μM protein (either AlbAS or its variants AlbAL, AlbASM, AlbASNTD, and AlbASCTD). The mixture was incubated for 20 min at room temperature in the dark. Reaction mixtures of 30 μL were transferred in triplicates of 2 mm holes on the inoculated agar plate. The plates were evaluated concerning growth-inhibition zone after incubation for 18 h at 37 °C.
# AlbAS [1] = molecular target: T1, AlbAS (Klebsiella oxytoca, UniProt Q8KRS7); assay: 1H-15N HSQC NMR binding assay; settings: 15N-labeled AlbAS, 1.5-fold excess of ligand
# T1 sequence (Q8KRS7 1-221): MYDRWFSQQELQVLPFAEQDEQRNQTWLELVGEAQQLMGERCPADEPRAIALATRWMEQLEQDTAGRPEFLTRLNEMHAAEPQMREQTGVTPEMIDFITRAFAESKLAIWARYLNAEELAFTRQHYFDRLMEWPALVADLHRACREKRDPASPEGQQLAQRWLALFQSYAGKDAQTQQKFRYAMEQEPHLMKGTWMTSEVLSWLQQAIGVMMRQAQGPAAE
# Protocol: For binding studies with albicidin and its derivatives, each ligand was dissolved in 100% d6-DMSO and added to ^15N-labeled AlbAS or ^2H, ^15N-labeled AlbAL in 50 mM sodium hydrogen phosphate (pH 6.8), 150 mM NaCl buffer (usually 0.24 mM AlbAS or AlbAL in 85% buffer, 5% d6-DMSO, and 10% D2O) yielding a 1.5-fold excess of the ligand. After incubation for 20 min at room temperature in the dark, the sample was centrifuged at 20 000 × g for 3 min and the supernatant was transferred to a 5 mm NMR tube. The AlbAS blank sample (Supplementary Figure 14) was measured in 100% buffer without addition of ligands and DMSO. Spectra were recorded on a Bruker Avance III 700 MHz NMR spectrometer (Bruker BioSpin, Rheinstetten, Germany) with a TXI probe head. Standard Bruker pulse sequences were used. 2D ^1H-^15N HSQC spectra were recorded at 298 K with acquisition times of 90 and 22 ms for the ^1H and ^15N dimension, respectively. The experiments were accumulated with ≥16 scans depending on protein sample concentration. 2D ^1H-^15N TROSY spectra were accumulated with 256 scans and acquisition times of 90 and 22 ms for the ^1H and ^15N dimension, respectively. Several AlbAS–albicidin samples were measured with the same result and a representative spectrum is given for the figures in the main manuscript and the SI. NMR experiments with AlbAS and albicidin analogs were conducted once with accumulation of ≥16 scans depending on protein concentration. For alignment of HSQC and TROSY spectra, the TROSY spectrum was corrected by 1/2 ^1JNH in both dimensions. […]
# AlbAS [2] = molecular target: T1, AlbAS; assay: Fluorescence quenching binding assay (tryptophan fluorescence) with AlbAS; settings: for Kd: AlbAS 20 nM, fluorescence quenching, pH 6.8
# Protocol: Fluorescence quenching measurements were performed by monitoring tryptophan fluorescence of AlbAS (20 nM), AlbAL (20 nM), AlbASNTD, and AlbASCTD (100 nM) on a FluoroMax 2 spectrometer from Horiba (Potsdam, Germany). The excitation wavelength was set to λexc = 280 nm. Emission spectra were recorded from λem = 290–450 nm with a scanning speed of 1 nm s^−1 and an integration time of 1 s. The excitation and emission slit widths were set to 8 and 4 nm, respectively. Proteins were solved in 50 mM sodium phosphate buffer with 150 mM NaCl and 0.01% DMSO at pH 6.8. All measurements were performed twice and the standard deviation is given for the Kd and the Hill factor n. Data evaluation was performed by integration of the emission band (318–410 nm for AlbAS, 316–412 nm for AlbAL, and 319–390 nm for AlbASNTD and AlbASCTD) for every titration step. The area under the curve (AUC) of the buffer blank (buffer with 0.01% DMSO) was subtracted from the measured titration data. The quenching factor was determined by subtraction of AUCs for each titration step from the AUC of the protein in the absence of ligand. For determination of the AlbAS– and AlbAL–albicidin Kd values, the data were fitted to Eq. (2).2 Y=Bmax[L]^n/Kdn+[L]^n where [L], n, and Bmax denote the total ligand concentration, the Hill coefficient, and the maximum binding capacity of the protein, respectively.
# For the determination of the Kd for AlbAS–compound 7 the data were fitted to Eq. (3).3 Y=Pt+L+Kd-Pt+L+Kd^2-4PtL/2 where Pt is the total protein concentration.
smiles,measurement,setting,value
COc1c(NC(=O)c2ccc(NC(=O)c3ccc(NC(=O)[C@H](CC#N)NC(=O)c4ccc(NC(=O)/C(C)=C/c5ccc(F)cc5)cc4)cc3)c(OC)c2O)ccc(C(=O)O)c1O [compound 1],neutralization of antibacterial activity by AlbAS,E. coli DH5α,abolished the antibacterial activity
COc1c(NC(=O)c2ccc(NC(=O)c3ccc(NC(=O)[C@@H](NC(=O)c4ccc(NC(=O)c5ccc(O)cc5)cc4)[C@@H](C)O)cc3)c(OC)c2O)ccc(C(=O)O)c1O [compound 2],binding to AlbAS by HSQC signal pattern (in words),AlbAS [1],characteristic HSQC signal pattern as in the case of albicidin binding; also recorded: no significant effect on AlbAS binding
same,neutralization of antibacterial activity by AlbAS,E. coli DH5α,confirmed binding
same,antibacterial activity in agar diffusion assay,E. coli DH5α,strongly antibacterial
COc1c(NC(=O)c2ccc(NC(=O)c3ccc(NC(=O)[C@@H](CC#N)NC(=O)c4ccc(NC(=O)/C(C)=C/c5ccc(O)cc5)cc4)cc3)c(OC)c2O)ccc(C(=O)O)c1O [compound 3],binding to AlbAS by HSQC signal pattern (in words),AlbAS [1],still able to bind; also recorded: binding mode equivalent to that of albicidin
same,neutralization of antibacterial activity by AlbAS,E. coli DH5α,prohibit its antibacterial effects; also recorded: neutralizing effect
C/C(=C\c1ccc(O)cc1)C(=O)Nc1ccc(C(=O)O)cc1 [compound 4],binding to AlbAS by HSQC signal pattern (in words),AlbAS [1],weak binding
same,antibacterial activity in agar diffusion assay,E. coli DH5α,did not display antibacterial activity
same,effect on fluorescence emission of AlbAS (in words),AlbAS [2]; AlbAS 20 nM titrated with compound,did not lead to significant quenching; also recorded: no consistent effect on fluorescence emission spectra
COc1c(NC(=O)c2ccc(NC(=O)c3ccc(N)cc3)c(OC)c2O)ccc(C(=O)O)c1O [compound 5],binding to AlbAS by HSQC signal pattern (in words),AlbAS [1],slow-exchange regime (strong binding)
same,antibacterial activity in agar diffusion assay,E. coli DH5α,did not display antibacterial activity
same,Kd,AlbAS [2],~55.5 nM and 55.5 nM
COc1c(NC(=O)c2ccc(NC(=O)[C@H](CC#N)NC(=O)c3ccc(N)cc3)cc2)ccc(C(=O)O)c1O [compound 6],binding to AlbAS by HSQC signal pattern (in words),AlbAS [1],slow-exchange regime (strong binding)
same,antibacterial activity in agar diffusion assay,E. coli DH5α,did not display antibacterial activity
COC(C(N)=O)C(NC(=O)c1ccc(NC(=O)c2ccc([N+](=O)[O-])cc2)cc1)C(=O)Nc1ccc(C(=O)Nc2ccc(C(=O)Nc3ccc(C(=O)O)cc3OC(C)C)cc2OC(C)C)cc1 (centres unmarked) [compound 7],binding to AlbAS by HSQC signal pattern (in words),AlbAS [1],strong binding of compound 7 in the nanomolar Kd range
same,neutralization of antibacterial activity by AlbAS,E. coli DH5α,"able to neutralize the antibacterial effects of compound 7, albeit with decreased efficiency"
same,Kd,AlbAS [2],14 ± 2.9 nM

# — publication PMC6078987, “Molecular insights into antibiotic resistance - how a binding protein traps albicidin” (Nature Communications, 2018)
